Assay results reported in patent publication US10662164B2, “Non-beta lactam antibiotics” (University of Notre Dame du Lac, priority 2014, dated 2020).
Converted amounts (≈) assume the structure as drawn. “Also recorded” adds a separate entry of the source. Read-outs that look alike come from different tables or passages of the source.

What was measured:
S. aureus ATCC 29213 = experiment: MIC determination; format: cell-based, Staphylococcus aureus; details: for antibacterial activity in words (SAR, ring A derivatives): S. aureus ATCC 29213, compounds of Schemes 3-4; for S. aureus ATCC 29213 MIC: Table 3.1, compounds of Schemes 2-4
E. faecium NCTC 7171 = experiment: MIC determination; format: cell-based, Enterococcus faecium; details: for MIC: Enterococcus faecium
[1] = Staphylococcus aureus, ATCC29213, Table 3.1 and SAR text, compounds of Schemes 2-4, read-out: S. aureus ATCC 29213 MIC
[2] = NCTC7171, Table 3.1, compounds of Schemes 2-4, read-out: E. faecium NCTC 7171 MIC
[3] = Staphylococcus aureus, ATCC29213, read-out: S. aureus ATCC 29213 MIC
[4] = NCTC7171, read-out: E. faecium NCTC 7171 MIC
[5] = S. aureus ATCC29213, second numbering, compounds of Scheme 6
[6] = Table 3.1, compounds of Schemes 2-4

Row | SMILES | MIC (S. aureus ATCC 29213; [1]) | MIC (E. faecium NCTC 7171; [2]) | further results
1 | Brc1c[nH]nc1-c1nc(-c2ccc(Oc3ccccc3)cc2)no1 [61a] | 1 µg/mL (≈ 2.61 µM) | 16 µg/mL (≈ 41.8 µM) | –
2 | Ic1c[nH]nc1-c1nc(-c2ccc(Oc3ccccc3)cc2)no1 [62a] | 1 µg/mL (≈ 2.32 µM) | 32 µg/mL (≈ 74.4 µM) | –
3 | Oc1ccc(-c2nc(-c3ccc(Oc4ccccc4)cc3)no2)cc1 [Compound 57a] | 1 µg/mL (≈ 3.03 µM) | 1 µg/mL (≈ 3.03 µM) | –
4 | Oc1ccc(-c2nc(-c3ccc(Oc4ccc(F)cc4)cc3)no2)cc1 [Compound 57c] | 1 µg/mL (≈ 2.87 µM) | 1 µg/mL (≈ 2.87 µM) | –
5 | Nc1ccc(-c2nc(-c3ccc(Oc4ccccc4)cc3)no2)cc1 [Compound 58a] | – | – | MIC (S. aureus ATCC 29213; [3]): 4 µg/mL (≈ 12.1 µM); MIC (E. faecium NCTC 7171; [4]): 2 µg/mL (≈ 6.07 µM)
6 | Nc1ccc(-c2nc(-c3ccc(Oc4ccc(C(F)(F)F)cc4)cc3)no2)cc1 [Compound 58b] | 1 µg/mL (≈ 2.52 µM) | 2 µg/mL (≈ 5.03 µM) | –
7 | Nc1ccc(-c2nc(-c3ccc(Oc4ccc(F)cc4)cc3)no2)cc1 [Compound 58c] | > 128 µg/mL | > 128 µg/mL | antibacterial activity in words (SAR, ring A derivatives) (S. aureus ATCC 29213): no antibiotic activity; also recorded: inactive
8 | Clc1c[nH]nc1-c1nc(-c2ccc(Oc3ccccc3)cc2)no1 [Compound 60a] | – | – | MIC (S. aureus ATCC 29213; [5]): 8 µg/mL (≈ 23.6 µM); MIC (S. aureus ATCC 29213; [3]): 1 µg/mL (≈ 2.95 µM); MIC (E. faecium NCTC 7171; [4]): > 128 µg/mL
9 | FC(F)(F)c1ccc(Oc2ccc(-c3noc(-c4n[nH]cc4Br)n3)cc2)cc1 [Compound 61b] | 1 µg/mL (≈ 2.22 µM) | > 128 µg/mL | –
10 | FC(F)(F)c1ccc(Oc2ccc(-c3noc(-c4n[nH]cc4I)n3)cc2)cc1 [Compound 62b] | 2 µg/mL (≈ 4.01 µM) | 32 µg/mL (≈ 64.2 µM) | –
11 | O=[N+]([O-])c1c[nH]nc1-c1nc(-c2ccc(Oc3ccc(C(F)(F)F)cc3)cc2)no1 [Compound 63b, 5-(4-Nitro-1H-pyrazole-3-yl)-3-(4-(4-(trifluoromethyl)phenoxy)phenyl)-1,2,4-oxadiazole] | 2 µg/mL (≈ 4.79 µM) | 2 µg/mL (≈ 4.79 µM) | –
12 | O=[N+]([O-])c1c[nH]nc1-c1nc(-c2ccc(Oc3ccc(F)cc3)cc2)no1 [Compound 63c] | 1 µg/mL (≈ 2.72 µM) | 4 µg/mL (≈ 10.9 µM) | –
13 | Nc1c[nH]nc1-c1nc(-c2ccc(Oc3ccccc3)cc2)no1 [Compound 64a] | – | – | antibacterial activity in words (SAR, C/D ring derivatives) (S. aureus ATCC 29213; [5]): retained activity; MIC (S. aureus ATCC 29213; [3]): 16 µg/mL (≈ 50.1 µM); MIC (E. faecium NCTC 7171; [4]): 32 µg/mL (≈ 100 µM)
14 | Nc1c[nH]nc1-c1nc(-c2ccc(Oc3ccc(C(F)(F)F)cc3)cc2)no1 [Compound 64b, 3-(3-(4-(4-(Trifluoromethyl)phenoxy)phenyl)-1,2,4-oxadiazol-5-yl)-1H-pyrazol-4-amine] | 4 µg/mL (≈ 10.3 µM) | 16 µg/mL (≈ 41.3 µM) | –
15 | Nc1c[nH]nc1-c1nc(-c2ccc(Oc3ccc(F)cc3)cc2)no1 [Compound 64c] | 16 µg/mL (≈ 47.4 µM) | 32 µg/mL (≈ 94.9 µM) | –
16 | CC(C)Nc1c[nH]nc1-c1nc(-c2ccc(Oc3ccccc3)cc2)no1 [Compound 65a] | – | – | antibacterial activity in words (SAR, C/D ring derivatives) (S. aureus ATCC 29213; [5]): did not alter the activity; MIC (S. aureus ATCC 29213; [3]): 0.5 µg/mL (≈ 1.38 µM); MIC (E. faecium NCTC 7171; [4]): > 128 µg/mL
17 | N#Cc1c[nH]nc1-c1nc(-c2ccc(Oc3ccc(C(F)(F)F)cc3)cc2)no1 [Compound 67b] | 2 µg/mL (≈ 5.03 µM) | > 128 µg/mL | antibacterial activity in words (SAR, ring A derivatives) (S. aureus ATCC 29213): good activity
18 | Oc1ccc(-c2nc(-c3ccc(Oc4ccc(C(F)(F)F)cc4)cc3)no2)cc1O [Compound 69b] | 2 µg/mL (≈ 4.83 µM) | 128 µg/mL (≈ 309 µM) | –
19 | Oc1ccc(-c2nc(-c3ccc(Oc4ccc(F)cc4)cc3)no2)cc1O [Compound 69c] | 4 µg/mL (≈ 11 µM) | 8 µg/mL (≈ 22 µM) | –
20 | Oc1ccc(-c2nc(-c3ccc(Oc4ccccc4)cc3)no2)cc1F [Compound 70a] | 4 µg/mL (≈ 11.5 µM) | 4 µg/mL (≈ 11.5 µM) | –
21 | Oc1ccc(-c2nc(-c3ccc(Oc4ccc(C(F)(F)F)cc4)cc3)no2)cc1F [Compound 70b] | – | – | S. aureus ATCC 29213 MIC (S. aureus ATCC 29213): 2 µg/mL; E. faecium NCTC 7171 MIC (E. faecium NCTC 7171; [6]): 2 µg/mL
22 | Oc1ccc(-c2nc(-c3ccc(Oc4ccc(F)cc4)cc3)no2)cc1F [Compound 70c] | 2 µg/mL (≈ 5.46 µM) | 2 µg/mL (≈ 5.46 µM) | –
23 | Oc1c(F)cc(-c2nc(-c3ccc(Oc4ccc(C(F)(F)F)cc4)cc3)no2)cc1F [Compound 71b] | – | – | S. aureus ATCC 29213 MIC (S. aureus ATCC 29213): 2 µg/mL; E. faecium NCTC 7171 MIC (E. faecium NCTC 7171; [6]): 2 µg/mL
24 | Oc1c(F)cc(-c2nc(-c3ccc(Oc4ccc(F)cc4)cc3)no2)cc1F [Compound 71c] | 8 µg/mL (≈ 20.8 µM) | 4 µg/mL (≈ 10.4 µM) | –
25 | Nc1ccc(-c2nc(-c3ccc(Oc4ccccc4)cc3)no2)cc1F [Compound 72a] | – | – | antibacterial activity in words (SAR, C/D ring derivatives) (S. aureus ATCC 29213; [5]): inactive; MIC (S. aureus ATCC 29213; [3]): > 128 µg/mL; MIC (E. faecium NCTC 7171; [4]): > 32 µg/mL
26 | Nc1ccc(-c2nc(-c3ccc(Oc4ccc(C(F)(F)F)cc4)cc3)no2)cc1F [Compound 72b] | 2 µg/mL (≈ 4.82 µM) | 2 µg/mL (≈ 4.82 µM) | –
27 | Oc1c(F)cc(-c2nc(-c3ccc(Oc4ccc(C(F)(F)F)cc4)cc3)no2)cc1F [Compound 73b] | 4 µg/mL (≈ 9.21 µM) | 4 µg/mL (≈ 9.21 µM) | –
28 | Oc1ccc(Cc2nc(-c3ccc(Oc4ccccc4)cc3)no2)cc1 [Compound 74a] | – | 8 µg/mL (≈ 23.2 µM) | –
29 | c1ccc(Oc2ccc(-c3noc(-c4ccc5[nH]ccc5c4)n3)cc2)cc1 [Compound 75a] | 2 µg/mL (≈ 5.66 µM) | 2 µg/mL (≈ 5.66 µM) | –
